Experimental data from patent US11564920B2, “5-heteroaryl-1H-pyrazol-3-amine derivative” (Sumitomo Pharma Co., Ltd., priority 2020, dated 2023).

How the values were obtained:
[1] = Liposome encapsulation test of Example 1 (Test Example 6A); type: physicochemical
Description: 11.08 g of Presome ACD-1 (pre-prepared mixture consisting of hydrogenated soybean phosphatidylcholine, cholesterol, and distearoylphosphatidylethanolamine-methoxypolyethylene glycol 2000 at a mass ratio of 3:1:1, Nippon Fine Chemical Co., Ltd.) was weighed out, and 200 mL of 250 mM ammonium sulfate solution was added. The resulting mixture was heated to 65° C. and dispersed with a homogenizer (ULTRA-TURRAX, IKA) to obtain a crude liposome dispersion. […] The mixture was filtered through a 0.22 μm membrane filter to obtain an empty liposome solution with a total lipid concentration of 75 mM (75 μmol/mL).
The compound of Example 1 was weighed out. About 0.4 mL of 10 mM L-histidine buffer/10% sucrose solution (pH 6.5), about 0.1 mL of 0.1 mol/L hydrochloric acid, and 1 mL of the empty liposome solution were added, and the pH was adjusted to 6 to 6.5 by adding 1 mol/L hydrochloric acid. The mixture was heated for 30 minutes in a 65° C. water bath and then cooled with ice. The mixture was then filtered through a 0.22 μm membrane filter.
The liposome encapsulation ratio was calculated as follows. Unencapsulated compound concentration: The compound concentration was measured by HPLC for a solution prepared by adding 100 μL of aqueous 4% phosphoric acid solution to 100 μL of liposome solution. HPLC measurement conditions are the following.
Compound concentration in liposome solution: The liposome solution was diluted with a trifluoroacetic acid/water/methanol mixture (0.1/25/75) and was left standing for 10 minutes or longer at 5° C. The mixture was centrifuged for 5 minutes at 15,000×g to remove insolubles. The compound concentration in the supernatant was measured by HPLC. HPLC measurement conditions are the following. HPLC Conditions Column: Acquity UPLC BEH C18, 1.7 μm, 50×2.1 mm Column temperature: 40° C. Mobile phase: A: 0.1% trifluoroacetic acid containing water B: acetonitrile A/B (min): 95/5 (0)→0/100 (3.5)→0/100 (4)→95/5 (4.01)→95/5 (5) Flow rate: 0.8 mL/min Detection: UV visible detector, measured wavelength 254 nm injected volume: 5 μL
The encapsulation ratio and encapsulation efficiency were calculated by the following equations. Encapsulation ratio (%)=(compound concentration in liposome solution−unencapsulated compound concentration)×100/compound concentration in liposome solution Encapsulation efficiency (%)=(compound concentration in liposome solution−unencapsulated compound concentration)[…]

CHK2 = CHK2 (Homo sapiens (Human), UniProt O96017); assay: CHK1/CHK2 selectivity test (LabChip mobility shift); type: biochemical; details: read-out: IC50 value with respect to CHK2
Description: A 4-fold concentration test compound solution was prepared with an assay buffer (20 mM HEPES, 0.01% Triton X-100, 1 mM DTT, pH 7.5). A 4-fold concentration substrate/ATP/metal solution was prepared with a kit buffer (20 mM HEPES, 0.01% Triton X-100, 5 mM DTT, pH 7.5).

hERG current = hERG current (Homo sapiens (Human), UniProt Q12809); assay: hERG current blocking test; details: IC50 of hERG divided by IC50 of CHK1 inhibition of Test Example 1
Description: The test compounds were added to cultured hERG (human Ether-a-go-go Related Gene) gene stably expressing CHO cell line cells to achieve 0.27 to 100 μM.

CDK19/CYCLIN C = CDK19/CYCLIN C (Homo sapiens (Human), UniProt Q9BWU1); assay: Kinase selectivity test (HotSpot Full Panel Kinase profiling); type: biochemical; details: 100 nM, ATP 10 μM; read-out: Residual activity (%) CDK19/CYCLIN C
Description: (§1) Buffer: 20 mM HEPES, pH 7.5, 10 mM MgCl2, 2 mM […] (as needed), 1 mM EGTA, 0.02% Brij35, 0.02 mg/mL BSA, 0.1 mM Na3VO4, 2 mM DTT, 1% DMSO
(§2) ATP conversion rate in 2 hours: 5 to 20%
(§3) Compound concentration: 100 nM

GLK/MAP4K3 = GLK/MAP4K3 (Homo sapiens (Human), UniProt Q8IVH8); assay: as above; type: biochemical; details: 100 nM, ATP 10 μM; read-out: Residual activity (%) GLK/MAP4K3
Description: as §1, §2, §3

LRRK2 = LRRK2 (Homo sapiens (Human), UniProt Q5S007); assay: as above; type: biochemical; details: 100 nM, ATP 10 μM; read-out: Residual activity (%) LRRK2
Description: as §1, §2, §3

MEK5 = MEK5 (Homo sapiens (Human), UniProt Q13163); assay: as above; type: biochemical; details: 100 nM, ATP 10 μM; read-out: Residual activity (%) MEK5
Description: as §1, §2, §3

SIK1 = SIK1 (Homo sapiens (Human), UniProt P57059); assay: as above; type: biochemical; details: 100 nM, ATP 10 μM; read-out: Residual activity (%) SIK1
Description: as §1, §2, §3

Chain of CDK19/CYCLIN C (Q9BWU1 whole entry): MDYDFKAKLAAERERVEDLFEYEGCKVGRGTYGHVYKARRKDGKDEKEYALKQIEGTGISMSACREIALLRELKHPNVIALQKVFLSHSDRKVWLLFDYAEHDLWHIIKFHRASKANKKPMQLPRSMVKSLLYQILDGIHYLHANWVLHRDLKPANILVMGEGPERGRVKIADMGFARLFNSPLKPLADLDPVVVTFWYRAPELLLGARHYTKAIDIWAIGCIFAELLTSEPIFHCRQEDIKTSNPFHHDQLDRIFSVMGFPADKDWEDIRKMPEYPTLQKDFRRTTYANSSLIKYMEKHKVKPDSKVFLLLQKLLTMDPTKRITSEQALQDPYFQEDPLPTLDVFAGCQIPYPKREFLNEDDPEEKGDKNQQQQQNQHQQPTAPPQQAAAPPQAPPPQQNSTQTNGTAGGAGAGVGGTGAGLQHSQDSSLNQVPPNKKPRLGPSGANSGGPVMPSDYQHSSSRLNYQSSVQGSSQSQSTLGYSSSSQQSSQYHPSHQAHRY
Chain of CDK19/CYCLIN C (P24863 whole entry partner): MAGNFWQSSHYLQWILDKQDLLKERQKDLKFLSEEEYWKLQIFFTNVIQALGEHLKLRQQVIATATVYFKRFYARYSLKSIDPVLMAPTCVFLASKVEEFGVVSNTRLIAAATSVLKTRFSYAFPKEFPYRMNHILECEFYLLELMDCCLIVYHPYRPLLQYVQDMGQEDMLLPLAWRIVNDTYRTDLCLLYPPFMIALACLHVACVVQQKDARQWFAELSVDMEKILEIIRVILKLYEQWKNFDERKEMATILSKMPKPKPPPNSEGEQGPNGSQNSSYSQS
Chain of CHK2 (O96017 whole entry): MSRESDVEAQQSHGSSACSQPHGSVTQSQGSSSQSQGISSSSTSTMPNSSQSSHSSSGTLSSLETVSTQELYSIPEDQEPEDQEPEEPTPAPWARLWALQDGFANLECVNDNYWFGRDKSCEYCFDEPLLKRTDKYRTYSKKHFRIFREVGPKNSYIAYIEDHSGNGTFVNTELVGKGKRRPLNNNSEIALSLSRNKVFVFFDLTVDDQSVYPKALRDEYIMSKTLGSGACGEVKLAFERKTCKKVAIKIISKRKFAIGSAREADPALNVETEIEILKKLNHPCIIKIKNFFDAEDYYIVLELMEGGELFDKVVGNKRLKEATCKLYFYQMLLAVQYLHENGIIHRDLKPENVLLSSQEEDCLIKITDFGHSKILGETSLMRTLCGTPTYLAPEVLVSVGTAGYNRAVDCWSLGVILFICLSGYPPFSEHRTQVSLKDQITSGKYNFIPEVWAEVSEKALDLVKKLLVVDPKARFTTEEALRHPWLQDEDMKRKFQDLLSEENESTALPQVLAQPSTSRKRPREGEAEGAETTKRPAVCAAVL
Chain of SIK1 (P57059 whole entry): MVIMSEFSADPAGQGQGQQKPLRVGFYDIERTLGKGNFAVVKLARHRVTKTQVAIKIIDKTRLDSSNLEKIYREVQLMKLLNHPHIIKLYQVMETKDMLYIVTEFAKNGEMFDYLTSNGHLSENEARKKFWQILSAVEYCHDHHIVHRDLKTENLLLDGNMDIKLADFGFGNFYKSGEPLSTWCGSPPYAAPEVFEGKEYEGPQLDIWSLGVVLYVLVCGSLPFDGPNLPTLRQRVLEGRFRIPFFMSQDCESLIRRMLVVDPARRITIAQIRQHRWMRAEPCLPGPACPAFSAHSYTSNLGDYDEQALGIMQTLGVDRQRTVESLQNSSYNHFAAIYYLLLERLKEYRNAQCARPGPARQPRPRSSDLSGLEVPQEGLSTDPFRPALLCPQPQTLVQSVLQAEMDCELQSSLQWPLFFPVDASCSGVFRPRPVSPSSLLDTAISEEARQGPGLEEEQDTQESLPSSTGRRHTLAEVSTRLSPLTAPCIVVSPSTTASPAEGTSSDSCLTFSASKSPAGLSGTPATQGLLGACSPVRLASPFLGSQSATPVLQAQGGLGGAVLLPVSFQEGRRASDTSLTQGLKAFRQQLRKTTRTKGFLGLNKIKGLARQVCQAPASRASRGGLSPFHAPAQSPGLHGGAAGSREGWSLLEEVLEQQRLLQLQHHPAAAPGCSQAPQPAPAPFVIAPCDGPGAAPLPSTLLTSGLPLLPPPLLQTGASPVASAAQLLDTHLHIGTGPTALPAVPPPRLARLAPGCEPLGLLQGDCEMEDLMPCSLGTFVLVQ
Chain of hERG current (Q12809 whole entry): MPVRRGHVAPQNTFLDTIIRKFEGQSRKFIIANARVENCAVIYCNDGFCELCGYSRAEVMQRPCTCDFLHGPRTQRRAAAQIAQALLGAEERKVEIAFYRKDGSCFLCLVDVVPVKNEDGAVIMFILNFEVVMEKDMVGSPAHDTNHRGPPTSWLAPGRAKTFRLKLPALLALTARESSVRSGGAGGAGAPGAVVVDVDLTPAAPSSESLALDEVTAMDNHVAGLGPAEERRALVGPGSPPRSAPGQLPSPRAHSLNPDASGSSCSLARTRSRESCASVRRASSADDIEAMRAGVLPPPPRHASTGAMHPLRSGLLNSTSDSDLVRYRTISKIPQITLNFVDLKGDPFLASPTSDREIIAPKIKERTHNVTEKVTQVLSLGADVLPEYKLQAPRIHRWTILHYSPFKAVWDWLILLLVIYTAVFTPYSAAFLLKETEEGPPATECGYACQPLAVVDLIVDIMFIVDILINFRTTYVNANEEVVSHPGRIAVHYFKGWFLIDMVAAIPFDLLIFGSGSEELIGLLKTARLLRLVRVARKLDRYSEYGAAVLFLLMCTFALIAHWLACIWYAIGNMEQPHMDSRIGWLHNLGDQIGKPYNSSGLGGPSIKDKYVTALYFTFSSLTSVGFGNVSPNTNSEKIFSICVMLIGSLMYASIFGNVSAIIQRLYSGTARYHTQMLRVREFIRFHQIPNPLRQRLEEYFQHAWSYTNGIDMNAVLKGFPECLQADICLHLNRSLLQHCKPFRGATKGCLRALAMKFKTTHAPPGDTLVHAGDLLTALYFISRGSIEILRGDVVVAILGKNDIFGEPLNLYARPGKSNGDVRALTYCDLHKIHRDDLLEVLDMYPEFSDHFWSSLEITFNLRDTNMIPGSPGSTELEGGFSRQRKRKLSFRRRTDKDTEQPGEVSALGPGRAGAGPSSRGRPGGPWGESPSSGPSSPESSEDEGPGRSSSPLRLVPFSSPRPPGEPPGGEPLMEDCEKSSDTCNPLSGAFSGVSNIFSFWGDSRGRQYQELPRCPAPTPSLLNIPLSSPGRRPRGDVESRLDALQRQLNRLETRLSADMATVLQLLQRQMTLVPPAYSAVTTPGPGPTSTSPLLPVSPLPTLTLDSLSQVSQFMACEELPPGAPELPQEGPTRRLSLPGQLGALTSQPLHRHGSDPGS
Chain of MEK5 (Q13163 whole entry): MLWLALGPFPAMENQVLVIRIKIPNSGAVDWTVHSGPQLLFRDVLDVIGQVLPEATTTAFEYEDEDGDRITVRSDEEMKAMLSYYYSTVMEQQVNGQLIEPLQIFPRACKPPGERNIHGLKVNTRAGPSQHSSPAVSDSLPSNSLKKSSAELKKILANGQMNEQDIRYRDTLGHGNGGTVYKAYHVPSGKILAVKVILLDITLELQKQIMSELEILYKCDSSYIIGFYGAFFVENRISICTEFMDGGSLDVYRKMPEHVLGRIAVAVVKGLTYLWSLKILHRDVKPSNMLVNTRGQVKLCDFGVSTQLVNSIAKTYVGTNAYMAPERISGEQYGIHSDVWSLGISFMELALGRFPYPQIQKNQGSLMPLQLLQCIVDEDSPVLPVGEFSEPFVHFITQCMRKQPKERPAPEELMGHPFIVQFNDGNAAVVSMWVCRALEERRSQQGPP
Chain of GLK/MAP4K3 (Q8IVH8 whole entry): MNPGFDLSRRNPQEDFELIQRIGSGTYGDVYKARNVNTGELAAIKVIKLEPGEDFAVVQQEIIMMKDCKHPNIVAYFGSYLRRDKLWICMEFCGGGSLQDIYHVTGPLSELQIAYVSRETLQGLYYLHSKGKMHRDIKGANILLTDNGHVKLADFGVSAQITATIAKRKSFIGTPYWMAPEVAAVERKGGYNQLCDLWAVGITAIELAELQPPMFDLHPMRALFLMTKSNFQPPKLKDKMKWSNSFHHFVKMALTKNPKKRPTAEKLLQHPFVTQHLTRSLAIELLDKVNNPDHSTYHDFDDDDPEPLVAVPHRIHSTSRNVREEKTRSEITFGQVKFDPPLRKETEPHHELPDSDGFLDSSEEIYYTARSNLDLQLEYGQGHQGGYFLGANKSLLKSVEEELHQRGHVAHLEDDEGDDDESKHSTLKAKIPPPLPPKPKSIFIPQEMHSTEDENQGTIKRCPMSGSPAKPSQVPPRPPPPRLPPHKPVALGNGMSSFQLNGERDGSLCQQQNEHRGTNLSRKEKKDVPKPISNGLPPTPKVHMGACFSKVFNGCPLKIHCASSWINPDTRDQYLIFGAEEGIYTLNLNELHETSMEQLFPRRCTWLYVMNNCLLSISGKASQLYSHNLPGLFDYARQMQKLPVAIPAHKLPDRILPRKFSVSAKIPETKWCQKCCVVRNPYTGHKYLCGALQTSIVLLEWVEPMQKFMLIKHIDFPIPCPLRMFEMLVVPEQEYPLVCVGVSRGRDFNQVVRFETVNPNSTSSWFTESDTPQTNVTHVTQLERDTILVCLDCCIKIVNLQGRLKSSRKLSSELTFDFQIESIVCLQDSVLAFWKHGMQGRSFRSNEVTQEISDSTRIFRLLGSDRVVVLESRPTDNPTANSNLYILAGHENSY

Row | remaining activity at 0.1 µM (CDK19/CYCLIN C) | remaining activity at 0.1 µM (GLK/MAP4K3) | remaining activity at 0.1 µM (LRRK2) | remaining activity at 0.1 µM (MEK5) | remaining activity at 0.1 µM (SIK1) | Structure (SMILES) | liposome encapsulation efficiency [1] | Encapsulation efficiency ([1]; concentration upon compound introduction 2 mg/mL) | Encapsulation efficiency ([1]; concentration upon compound introduction 3 mg/mL) | Encapsulation efficiency ([1]; concentration upon compound introduction 4 mg/mL) | IC50 (CHK2) | hERG/CHK1 (hERG current)
1 | – | – | – | – | – | COc1ccnc(OCCCN)c1-c1cc(Nc2cnc(C#N)cn2)n[nH]1 [Example 1, 5-({5-[2-(3-aminopropoxy)-4-methoxypyridin-3-yl]-1H-pyrazol-3-yl}amino)pyrazine-2-carbonitrile] | ≥ 90% | 91.3% | 91.6% | 92.2% | 56.6 nM | >115000
2 | 19.9% | 20.8% | 23.5% | 10.7% | 11.9% | COc1cccc(OCCCN)c1-c1cc(Nc2cnc(C#N)cn2)n[nH]1 [Prexasertib, reference compound] | – | – | – | – | – | –
